Patent publication US12187756B2 (priority 2018, dated 2025)

Conditions: buffer

CC(=O)NC1[C@H](O[C@@H]2C(CO)O[C@H](O[C@H]3C(CO)O[C@@H](O[C@@H]4C(O)[C@@H](COP(=O)(O)OCCCCCN)OC(CO)[C@H]4O)C(NC(C)=O)[C@H]3O[C@@H]3OC(CO)[C@@H](O)[C@H](O)C3O)[C@@H](O)C2O)OC(CO)[C@H](O)[C@@H]1O[C@@H]1OC(CO)[C@@H](O)[C@H](O)C1O (stereo partly shown) [compound 33]
compound remaining intact (HPLC): 50%
